The values below come from US7195892B2, “Acylase gene” (Kaneka Corporation, priority 2002, dated 2007).

What all share (format): biochemical
Data set [1] concerns the target T1, Escherichia coli PenG amidase (Escherichia coli, UniProt P06875).
T1 construct: purchased Sigma
The experiment in a line: Amoxycillin synthetic activity inhibition by PAA and PXA. Particulars: for relative activity, amoxycillin synthesis amount with the substrate alone set at 100%: 30 mM KPB pH 6.0, 30° C., 1 hour; for inhibition of amoxycillin synthesis (in words): summary of Table 1. As to the method:
(§1) To 200 μl of a substrate solution prepared by dissolving 6-APA and HPGOMe-HCl in 30 mM KPB (pH 6.0) at the concentration of 0.5%, 10 μl of the enzyme solution obtained in (Examination Example 1) was added. PAA was added to be 0.3% and PXA was added to be 0.35%, and the mixture was subjected to reaction while shaking at 30° C. for 1 hour. Then, 1N HCl was added in 1/20 amount of the substrate to terminate the reaction. The generated amoxycillin was detected using HPLC. The result showing relative activity for the respective enzymes with the amoxycillin synthesis amount reacted by the substrate alone being set at 100% is shown in Table 1.

Data set [2] has as its system Stenotrophomonas maltophilia KNK12A strain-derived β-lactam acylase. Described as above. Particulars: for relative activity, amoxycillin synthesis amount with the substrate alone set at 100%: 30 mM KPB pH 6.0, 30° C., 1 hour; for inhibition of amoxycillin synthesis (in words): summary of Table 1. As to the method:
as §1

Data set [3] in a line: Comparison of amoxycillin synthesis activity. The conditions noted are these: 0.5% 6-APA and HPGOMe-HCl, pH 6.0, 30° C., 0-120 minutes; FIG. 3. As to the method: Amoxycillin synthesis activities of the Stenotrophomonas maltophilia KNK12A strain-derived β-lactam acylase and the known Escherichia coli PenG amidase (Sigma) were compared. As an enzyme solution, the fraction obtained in (Example 8) (enzyme concentration: about 3.2 ng/10 μl) was used for the Stenotrophomonas maltophilia KNK12A strain-derived β-lactam acylase, and 100-fold diluted solution (10.2 munit/10 μl, enzyme concentration: about 3.5 ng/10 μl) was used for Escherichia coli PenG amidase.
To 200 μl of a substrate solution prepared by dissolving 6-APA and HPGOMe-HCl in 30 mM KPB (pH 6.0) at the concentration of 0.5%, 10 μl of the enzyme solution was added and the mixture was subjected to reaction while shaking at 30° C. After the lapse of 0, 5, 10, 15, 30, 45, 60, 75, 90, 105 and 120 minutes from the start of the reaction, 1N HCl was added in 1/20 amount of the substrate solution to terminate the reaction. The generated amoxycillin was detected using HPLC.

Data set [4] is described as follows: Decomposition activity of amoxycillin. Particulars: 0.5% amoxycillin, pH 6.0, 30° C., 1 hour; FIG. 4. As to the method: To 200 μl of a solution prepared by dissolving amoxycillin in 30 mM KPB (pH 6.0) at the concentration of 0.5%, 10 μl of the enzyme solution obtained in (Examination Example 1) was added. The mixture was subjected to reaction for 1 hour while shaking at 30° C., and 1N HCl was added in 1/20 amount of the substrate solution to terminate the reaction.
To 200 μl of a liquid prepared by dissolving amoxycillin in 30 mM KPB (pH 6.0) at the concentration of 0.5%, 10 μl of the enzyme solution obtained in (Examination Example 1) was added. The mixture was subjected to reaction while shaking at 30° C. for 1 hour, and then 1N HCl was added in 1/20 amount of the substrate solution to terminate the reaction. The remained amoxycillin was detected using HPLC.

Data set [5] can be described thus: Comparison of decomposition activity of HPGOMe. Particulars: 0.5% HPGOMe-HCl, pH 6.0, 30° C., 1 hour; FIG. 5. As to the method: To 200 μl of a liquid prepared by dissolving HPGOMe-HCl in 30 mM KPB (pH 6.0) at the concentration of 0.5%, 10μ of the enzyme solution obtained in (Examination Example 1) was added, and the mixture was subjected to reaction while shaking at 30° C. for 1 hour. Then, 1N HCl was added in 1/20 amount of the substrate solution to terminate the reaction. The remained HPGOMe was detected using HPLC.

Data set [6] can be described thus: Capability comparison examination of a mutant acylase. Particulars: compared with unmodified acylase. As to the method:
A β-lactam acylase-producing strain pUCNTkmTn5-KNK-L/HB101 strain and 1 amino acid-substituted mutant β-lactam acylase-producing strain pUCNT-Tn5-MuKNK-L1/HB101 strain were inoculated in 10 ml of CM culture medium, and shaking culture was carried out at 37° C. overnight. Cells were recovered from 2 ml of the culture by centrifugation, and suspended in 30 mM KPB (pH 6.0). Then, 1 ml of a substrate (prepared by dissolving 0.5% HPGOMe-HCl and 0.5% 6-APA in 30 mM KPB and adjusted to pH 6.0) was mixed therewith, and the mixture was subjected to reaction at 30° C. After the lapse of 10, 20, 30, 60, 90 and 180 minutes from the start of the reaction, 1N HCl was added in 1/20 amount of the substrate solution to terminate the reaction. Then, the centrifuged supernatant was diluted to 25-fold with 30 mM KPB, and 10 μl thereof was analyzed by HPLC. The amoxycillin conversion efficiency comparison is shown in FIG. 6, and ester decomposition degree comparison of D-p-hydroxyphenylglycine methyl ester (HPGOMe) is shown in FIG. 7.

T1 sequence (P06875 290-846): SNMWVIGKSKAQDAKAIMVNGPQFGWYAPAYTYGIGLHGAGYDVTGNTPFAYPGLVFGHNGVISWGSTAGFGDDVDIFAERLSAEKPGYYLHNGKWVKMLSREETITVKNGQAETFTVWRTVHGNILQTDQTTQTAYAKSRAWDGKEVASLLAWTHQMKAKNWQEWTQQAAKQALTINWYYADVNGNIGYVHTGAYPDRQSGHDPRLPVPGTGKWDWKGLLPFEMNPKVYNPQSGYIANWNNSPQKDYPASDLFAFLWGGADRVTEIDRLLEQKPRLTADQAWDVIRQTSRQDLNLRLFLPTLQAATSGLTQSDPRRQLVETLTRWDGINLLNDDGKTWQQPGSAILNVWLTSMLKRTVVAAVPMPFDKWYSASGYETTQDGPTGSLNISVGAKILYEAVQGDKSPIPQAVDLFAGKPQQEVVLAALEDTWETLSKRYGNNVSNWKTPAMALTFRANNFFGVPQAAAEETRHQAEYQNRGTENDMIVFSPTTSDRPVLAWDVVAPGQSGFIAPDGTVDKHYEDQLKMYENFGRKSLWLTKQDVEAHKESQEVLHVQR
T1 sequence (P06875 27-235): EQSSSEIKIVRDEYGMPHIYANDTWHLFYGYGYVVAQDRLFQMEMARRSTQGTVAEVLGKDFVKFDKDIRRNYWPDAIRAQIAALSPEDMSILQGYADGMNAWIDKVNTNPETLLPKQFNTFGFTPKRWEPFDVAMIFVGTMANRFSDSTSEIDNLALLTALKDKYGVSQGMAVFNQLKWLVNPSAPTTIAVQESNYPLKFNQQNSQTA

For `O=C(O)Cc1ccccc1` [PAA, Phenylacetic Acid], the “relative activity, amoxycillin synthesis amount with the substrate alone set at 100%” value in data set [1] (Substrate + 0.3% PAA) is 0%; in data set [2] (Substrate + 0.3% PAA) it was 107%. Also, the “inhibition of amoxycillin synthesis (in words)” value in data set [1] was “inhibited”; in data set [2], “not inhibited at all, or even in the case there is inhibition, it is slight”.

`O=C(O)COc1ccccc1` [PXA, Phenoxyacetic Acid]: the “relative activity, amoxycillin synthesis amount with the substrate alone set at 100%” value in data set [1] (Substrate + 0.35% PXA) is on record as 0%; in data set [2] (Substrate + 0.35% PXA), 76%. Also, the “inhibition of amoxycillin synthesis (in words)” value was “inhibited” in data set [1] and “not inhibited at all, or even in the case there is inhibition, it is slight” in data set [2].

B1: Stenotrophomonas maltophilia KNK12A strain-derived β-lactam acylase: β-lactam acylase of Stenotrophomonas maltophilia KNK12A, amino acid sequence SEQ ID NO:2, about 70 kDa (protein, listed as Stenotrophomonas maltophilia)
chain: MHVRAVAVAIALSLSSTVLAADTPPMTPDISGKPFIAPDVGRDYDKRVVMVPMRDGTRLYTVIVVPKGAHNAPILLTRTPYDAAGRASRSDSPRMRDLLPQGDEVFVDGGYIRVFQDIRGKYGSEGDYVMTRPLRGPLNNTKVDHSTDAWDTIDWLVKHVPESNGKVGMLGSSYEGFTVVMALTDPHPALKVAAPQSPMVDGWMGDDWLNYGAFRQVNFNYFAMQTEKRGKGTPLPSLGYDDYSTFLRIGSAGDYARFTGVDQLTWWKKLVQHPAYDGFWQGQALDAVMAKTPLKVPTMWLQGLWDQEDMWGANHAYQAMEGRDTGNTHNYLVMGPWRHSQVNYTGNELGALKFEGDTALQFRRDVLKPFFDQYLVDGAPKADTPPVLIYNTGENHWDRLQGWPRSCDKGCTAASKPLYLRAGGKLAFQAPAAGEGDFEEYVSDPAKPVPFVPRPVRFGDRDMWTTWLVKDQRFVDGRPDVLTFITEPLAEPLRIGGAPVVHLQASTSGTDSDWVVKLIDVYPDQEASTPEMGGYELPVSLAIFRGRYRESFSDPKPLAANQVLPYRFDLPNANHVFQKGHRVMVQVQSSLFPLYDRNPQTYVPNIYLAKPGDYQKATQRVWHSAAQASYVDLPVY
With B1, the “amoxycillin synthesis conversion rate” value in data set [3] is on record as “very high conversion rate as compared with Escherichia coli PenG amidase”. In data set [4], the amoxycillin decomposition speed result is on record as “slow”. Besides, the “decomposition speed of HPGOMe” value in data set [5] is “faster than that of Escherichia coli PenG amidase”.

B2: mutant β-lactam acylase (protein, listed as Stenotrophomonas maltophilia)
chain: MHVRAVAVAIALSLSSTVLAADTPPMTPDISGKPFIAPDVGRDYDKRVVMVPMRDGTRLYTVIVVPKGAHNAPILLTRTPYDAAGRASRSDSPRMRDLLPQGDEVFVDGGYIRVFQDIRGKYGSEGDYVMTRPLRGPLNNTKVDHSTDAWDTIDWLVKHVPESNGKVGMLGSSYEGFTVVMALTDPHPALKVAAPQSPMVDGWVGDDWLNYGAFRQVNFNYFAMQTEKRGKGTPLPSLGYDDYSTFLRIGSAGDYARFTGVDQLTWWKKLVQHPAYDGFWQGQALDAVMAKTPLKVPTMWLQGLWDQEDMWGANHAYQAMEGRDTGNTHNYLVMGPWRHSQVNYTGNELGALKFEGDTALQFRRDVLKPFFDQYLVDGAPKADTPPVLIYNTGENHWDRLQGWPRSCDKGCTAASKPLYLRAGGKLAFQAPAAGEGDFEEYVSDPAKPVPFVPRPVRFGDRDMWTTWLVKDQRFVDGRPDVLTFITEPLAEPLRIGGAPVVHLQASTSGTDSDWVVKLIDVYPDQEASTPEMGGYELPVSLAIFRGRYRESFSDPKPLAANQVLPYRFDLPNANHVFQKGHRVMVQVQSSLFPLYDRNPQTYVPNIYLAKPGDYQKATQRVWHSAAQASYVDLPVY
With B2, the acylase activity result in data set [6] (FIG. 6) is “enhanced”. In addition, the “ester decomposition activity of the substrate HPGOMe” value in data set [6] (FIG. 7) is reported as “reduced”.
